Assay results: ChEMBL document CHEMBL5543173, “Discovery of a New Anti-Inflammatory Agent from Anemoside B4 Derivatives and Its Therapeutic Effect on Colitis by Targeting Pyruvate Carboxylase” (J Med Chem, 2024)
Activity calls are given as the source filed them. The rule behind the calls is not given here.

Assays:
THP-1 [1] = test: Anti-inflammatory activity in LPS-treated human THP-1 cells assessed as decrease in phosphorylated I-kappaB-alpha level at 10 uM pretreated for 1 hr followed by LPS treatment for 6 hrs by Western blot analysis; format: functional, cell-based; settings: time 7.0 hrs
THP-1 [2] = test: Anti-inflammatory activity in human THP-1 cells assessed as decrease in LPS-induced phosphorylated p65 level pretreated for 1 hr followed by LPS treatment for 6 hrs by Western blot analysis; format: functional, cell-based; settings: dose 1-10 µM, time 7.0 hrs
THP-1 [3] = test: Anti-inflammatory activity in human THP-1 cells assessed as decrease in LPS-induced P20 level at 1 to 10 uM pretreated for 1 hr followed by LPS/ATP treatment for 6 hrs by Western blot analysis; format: functional, cell-based; settings: dose 1-10 µM, time 7.0 hrs
THP-1 [4] = test: Anti-inflammatory activity in human THP-1 cells assessed as decrease in LPS-induced IL-1beta level at 1 to 10 uM pretreated for 1 hr followed by LPS/ATP treatment for 6 hrs by Western blot analysis; format: functional, cell-based; settings: dose 1-10 µM, time 7.0 hrs
THP-1 [5] = test: Anti-inflammatory activity in human THP-1 cells assessed as decrease in LPS-induced TNF-alpha level pretreated for 1 hr followed by LPS treatment for 24 hrs by ELISA; format: functional, cell-based; settings: dose 0.1-10 µM, time 25.0 hrs
Mus musculus [6] = test: Anti-colitis activity in ICR mouse model assessed as reversal of DSS-induced splenomegaly at 15 to 60 mg/kg, IG treated for 9 days consecutively; format: functional, organism-based; settings: dose 15-60 mg/kg, time 9.0 day
[7] = Toxicity in ICR mouse assessed as change in kidney index at 300 mg/kg, IG measured for 9 days; format: organism-based; settings: in vivo, po, 216 h, time 9 day
[8] = Toxicity in ICR mouse assessed as change in spleen index at 300 mg/kg, IG measured for 9 days; format: organism-based; settings: in vivo, po, 216 h, time 9 day
[9] = Half life in ICR mouse at 15 mg/kg, IG measured for 12 hrs by LC-MS/MS analysis; format: ADME, organism-based; settings: ICR, in vivo, po
[10] = Cmax in ICR mouse at 15 mg/kg, IG measured for 12 hrs by LC-MS/MS analysis; format: ADME, organism-based; settings: in vivo, po
[11] = AUC (0 to t) in ICR mouse at 15 mg/kg, IG measured for 12 hrs by LC-MS/MS analysis; format: ADME, organism-based; settings: in vivo, po
[12] = Tmax in colon of ICR mouse at 15 mg/kg, IG measured for 12 hrs by LC-MS/MS analysis; format: ADME, organism-based; settings: po
[13] = Cmax in colon of ICR mouse at 15 mg/kg, IG measured for 12 hrs by LC-MS/MS analysis; format: ADME, organism-based; settings: po
[14] = MRT (0 to t) in colon of ICR mouse at 15 mg/kg, IG measured for 12 hrs by LC-MS/MS analysis; format: ADME, organism-based; settings: po
[15] = Volume of distribution in colon of ICR mouse at 15 mg/kg, IG measured for 12 hrs by LC-MS/MS analysis; format: ADME, organism-based; settings: in vivo, po
[16] = Tmax in Sprague-Dawley rat administered as hydroxypropyl-beta-cyclodextrin at 20 mg/kg, IG measured for 12 hrs by LC-MS/MS analysis; format: ADME, organism-based; settings: in vivo, po
[17] = Cmax in Sprague-Dawley rat administered as hydroxypropyl-beta-cyclodextrin at 20 mg/kg, IG measured for 12 hrs by LC-MS/MS analysis; format: ADME, organism-based; settings: in vivo, po
[18] = Stability in mouse liver microsomes assessed as half life at 10 uM preincubated for 5 mins followed by NADPH addition measured for 10 to 480 mins by LC-MS/MS analysis; format: ADME, Microsome; settings: time 15-485 min
[19] = Stability in mouse plasma assessed as half life at 10 uM preincubated for 5 mins followed by NADPH addition measured for 10 to 480 mins by LC-MS/MS analysis; format: ADME, cell-free; settings: time 15-485 min
THP-1 [20] = test: Anti-inflammatory activity in human THP-1 cells assessed as decrease in LPS-induced IL-1beta level at 10 uM pretreated for 1 hr followed by LPS treatment for 24 hrs in presence of DADA by ELISA; format: functional, cell-based; settings: time 25.0 hrs
THP-1 [21] = test: Anti-inflammatory activity in human THP-1 cells assessed as decrease in LPS-induced TNF-alpha level at 10 uM pretreated for 1 hr followed by LPS treatment for 24 hrs in presence of DADA by ELISA; format: functional, cell-based; settings: time 25.0 hrs
Mus musculus [22] = test: Anti-colitis activity in ICR mouse model assessed as decrease in DSS-induced DAI score at 60 mg/kg, IG treated for 8 days consecutively in presence of DADA; format: functional, organism-based; settings: time 8.0 day
Mus musculus [23] = test: Anti-colitis activity in ICR mouse model assessed as […] DSS-induced colon length at 60 mg/kg, IG treated for 8 days consecutively in presence of DADA; format: functional, organism-based; settings: time 8.0 day
Mus musculus [24] = test: Anti-colitis activity in ICR mouse model assessed as decrease in DSS-induced inflammatory cell infiltration in colon tissue at 15 to 60 mg/kg, IG treated for 8 days consecutively by H and E staining based analysis; format: functional, organism-based; settings: dose 15-60 mg/kg, time 8.0 day
Mus musculus [25] = test: Anti-colitis activity in ICR mouse model assessed as decrease in DSS-induced epithelial cell injury in colon tissue at 15 to 60 mg/kg, IG treated for 8 days consecutively by H and E staining based analysis; format: functional, organism-based; settings: dose 15-60 mg/kg, time 8.0 day
Mus musculus [26] = test: Anti-colitis activity in ICR mouse model assessed as decrease in DSS-induced apoptosis in colon tissue at 15 to 60 mg/kg, IG treated for 8 days consecutively by H and E staining based analysis; format: functional, organism-based; settings: dose 15-60 mg/kg, time 8.0 day
Mus musculus [27] = test: Anti-colitis activity in ICR mouse model assessed as decrease in DSS-induced inflammatory cell infiltration in colon tissue at 60 mg/kg, IG treated for 8 days consecutively in presence of DADA by H and E staining based analysis; format: functional, organism-based; settings: time 8.0 day
Mus musculus [28] = test: Anti-colitis activity in ICR mouse model assessed as decrease in DSS-induced apoptosis in colon tissue at 60 mg/kg, IG treated for 8 days consecutively in presence of DADA by H and E staining based analysis; format: functional, organism-based; settings: time 8.0 day
Mus musculus [29] = test: Anti-colitis activity in ICR mouse model assessed as decrease in DSS-induced IL-6 level at 60 mg/kg, IG treated for 8 days consecutively in presence of DADA; format: functional, organism-based; settings: time 8.0 day
Mus musculus [30] = test: Anti-colitis activity in ICR mouse model assessed as decrease in DSS-induced pyruvate carboxylase level at 60 mg/kg, IG treated for 8 days consecutively; format: functional, organism-based; settings: time 8.0 day
Mus musculus [31] = test: Anti-colitis activity in ICR mouse model assessed as increase in DSS-reduced pyruvate level at 60 mg/kg, IG treated for 8 days consecutively; format: functional, organism-based; settings: time 8.0 day
Mus musculus [32] = test: Anti-colitis activity in ICR mouse model assessed as increase in DSS-reduced pyruvate level at 60 mg/kg, IG treated for 8 days consecutively in presence of DADA; format: functional, organism-based; settings: time 8.0 day
Mus musculus [33] = test: Anti-colitis activity in ICR mouse model assessed as decrease in DSS-induced P65 phosphorylation in colon tissue at 60 mg/kg, IG treated for 8 days consecutively by Western blot analysis; format: functional, organism-based; settings: time 8.0 day
Mus musculus [34] = test: Anti-colitis activity in ICR mouse model assessed as decrease in DSS-induced I-kappaB-alpha degradation in colon tissue at 60 mg/kg, IG treated for 8 days consecutively in presence of DADA by Western blot analysis; format: functional, organism-based; settings: time 8.0 day
Mus musculus [35] = test: Anti-colitis activity in ICR mouse model of DSS-induced colitis assessed as effect on pyruvate carboxylase expression in colon tissue at 60 mg/kg, IG treated for 8 days consecutively by Western blot analysis; format: functional, organism-based; settings: time 8.0 day

- half-life [9]: 2.46 h
- Cmax [10]: 40.4 ng/mL
- AUCt [11]: 108.09 ng·h/mL
- Tmax [12]: 1.58 h
- Cmax [13]: 1110 ng/mL
- MRT last at 12 h [14]: 3.32 h
- Vd [15]: 97.34 L/kg
- Tmax [16]: 0.5 h
- Cmax [17]: 57.5 ng/mL
- t1/2 [18]: 6.46 min
- half-life at 10 µM [19]: 1.14 min
Compound: C=C(C)[C@@H]1CC[C@]2(C(=O)NCCCCCC(=O)OC)CC[C@]3(C)[C@H](CC[C@@H]4[C@@]5(C)CC[C@H](O[C@@H]6OC[C@H](O)[C@H](O)[C@H]6O[C@@H]6O[C@@H](C)[C@H](O)[C@@H](O)[C@H]6O)[C@@](C)(CO)[C@@H]5CC[C@]43C)[C@@H]12
- Activity (THP-1 [1]): Active
- Activity (THP-1 [2]): Dose-Dependent Effect
- Activity (THP-1 [3]): Active
- Activity (THP-1 [4]): Active
- Activity (THP-1 [5]): Dose-Dependent Effect
- Activity (Mus musculus [6]): Active
- Activity [7]: Non-Toxic
- Activity [8]: Non-Toxic
- Activity (THP-1 [20]): inactive
- Activity (THP-1 [21]): inactive
- Activity (Mus musculus [22]): inactive
- Activity (Mus musculus [23]): inactive
- Activity (Mus musculus [24]): Active
- Activity (Mus musculus [25]): Active
- Activity (Mus musculus [26]): Active
- Activity (Mus musculus [27]): inactive
- Activity (Mus musculus [28]): inactive
- Activity (Mus musculus [29]): inactive
- Activity (Mus musculus [30]): Active
- Activity (Mus musculus [31]): Active
- Activity (Mus musculus [32]): inactive
- Activity (Mus musculus [33]): Active
- Activity (Mus musculus [34]): inactive
- Activity (Mus musculus [35]): inactive
